In PubChem BioAssay (NCI):
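Test compounds were applied to cells in 96-well plates for 48 hours at 5 doses. GI50 is the concentration that inhibits growth by half. TGI marks complete inhibition of growth.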

Assays:
Assay in all cases: inhibition of tumour cell growth, NCI panel, 48 h
DU-145 prostate = tested on: DU-145 prostate
SN12C renal = tested on: SN12C renal
HOP-92 NSCLC = tested on: HOP-92 NSCLC
HCC-2998 colon = tested on: HCC-2998 colon
NCI-H460 lung = tested on: NCI-H460 lung
PC-3 prostate = tested on: PC-3 prostate
HCT-15 colon = tested on: HCT-15 colon
T-47D breast = tested on: T-47D breast
NCI-H226 lung = tested on: NCI-H226 lung
SNB-19 CNS = tested on: SNB-19 CNS
SK-MEL-2 melanoma = tested on: SK-MEL-2 melanoma
COLO 205 colon = tested on: COLO 205 colon
UACC-62 melanoma = tested on: UACC-62 melanoma
SK-MEL-28 melanoma = tested on: SK-MEL-28 melanoma
U251 CNS = tested on: U251 CNS
HS 578T breast = tested on: HS 578T breast
IGROV1 ovarian = tested on: IGROV1 ovarian
UACC-257 melanoma = tested on: UACC-257 melanoma
RXF 393 renal = tested on: RXF 393 renal
MCF7 breast = tested on: MCF7 breast
BT-549 breast = tested on: BT-549 breast
M14 melanoma = tested on: M14 melanoma
HOP-62 NSCLC = tested on: HOP-62 NSCLC
SNB-75 CNS = tested on: SNB-75 CNS
MDA-MB-468 breast = tested on: MDA-MB-468 breast
MALME-3M melanoma = tested on: MALME-3M melanoma
MDA-MB-435 = tested on: MDA-MB-435
UO-31 renal = tested on: UO-31 renal
SF-295 CNS = tested on: SF-295 CNS
MDA-MB-231 breast = tested on: MDA-MB-231 breast
CAKI-1 renal = tested on: CAKI-1 renal
SF-539 CNS = tested on: SF-539 CNS
SK-OV-3 ovarian = tested on: SK-OV-3 ovarian
LOX IMVI melanoma = tested on: LOX IMVI melanoma
NCI/ADR-RES ovarian = tested on: NCI/ADR-RES ovarian
TK-10 renal = tested on: TK-10 renal
OVCAR-5 ovarian = tested on: OVCAR-5 ovarian
OVCAR-8 ovarian = tested on: OVCAR-8 ovarian
A498 renal = tested on: A498 renal
SW-620 colon = tested on: SW-620 colon
786-0 renal = tested on: 786-0 renal
HCT-116 colon = tested on: HCT-116 colon
NCI-H522 lung = tested on: NCI-H522 lung
SK-MEL-5 melanoma = tested on: SK-MEL-5 melanoma
ACHN renal = tested on: ACHN renal
NCI-H23 lung = tested on: NCI-H23 lung
A549 NSCLC = tested on: A549 NSCLC
EKVX NSCLC = tested on: EKVX NSCLC

Molecule `O=C(CCl)Nc1ccc(C(=O)/C=C/c2cc3ccccc3nc2Cl)cc1` has a GI50 (DU-145 prostate) of 1760 nM, a TGI (DU-145 prostate) of 3170 nM and a GI50 (SN12C renal) of 1540 nM. The TGI (SN12C renal) was 2890 nM, the GI50 (HOP-92 NSCLC) was 1890 nM and the TGI (HOP-92 NSCLC) was 3830 nM. It also gave a GI50 (HCC-2998 colon) of 1580 nM, a TGI (HCC-2998 colon) of 2960 nM and a GI50 (NCI-H460 lung) of 1720 nM. It also gave a TGI (NCI-H460 lung) of 3330 nM, a GI50 (PC-3 prostate) of 1730 nM and a TGI (PC-3 prostate) of 3470 nM. The GI50 (HCT-15 colon) was 1240 nM, the TGI (HCT-15 colon) was 2610 nM and the GI50 (T-47D breast) was 1800 nM. It also gave a TGI (T-47D breast) of 3950 nM, a GI50 (NCI-H226 lung) of 1900 nM and a TGI (NCI-H226 lung) of 4820 nM. It also gave a GI50 (SNB-19 CNS) of 1660 nM, a TGI (SNB-19 CNS) of 3130 nM and a GI50 (SK-MEL-2 melanoma) of 2140 nM. For the same molecule, the TGI (SK-MEL-2 melanoma) was 5670 nM, the GI50 (COLO 205 colon) was 1750 nM and the TGI (COLO 205 colon) was 3230 nM. The GI50 (UACC-62 melanoma) was 1530 nM, the TGI (UACC-62 melanoma) was 2900 nM and the GI50 (SK-MEL-28 melanoma) was 1880 nM. It also gave a TGI (SK-MEL-28 melanoma) of 3660 nM, a GI50 (U251 CNS) of 1110 nM and a TGI (U251 CNS) of 2350 nM. It also gave a GI50 (HS 578T breast) of 1980 nM, a TGI (HS 578T breast) of 5220 nM and a GI50 (IGROV1 ovarian) of 1580 nM. The TGI (IGROV1 ovarian) was 3160 nM, the GI50 (UACC-257 melanoma) was 1620 nM and the TGI (UACC-257 melanoma) was 3230 nM. The GI50 (RXF 393 renal) was 1560 nM, the TGI (RXF 393 renal) was 2980 nM and the GI50 (MCF7 breast) was 294 nM. For the same molecule, the TGI (MCF7 breast) was 1430 nM, the GI50 (BT-549 breast) was 1210 nM and the TGI (BT-549 breast) was 2480 nM. For the same molecule, the GI50 (M14 melanoma) was 1570 nM, the TGI (M14 melanoma) was 3040 nM and the GI50 (HOP-62 NSCLC) was 2070 nM. For the same molecule, the TGI (HOP-62 NSCLC) was 3840 nM, the GI50 (SNB-75 CNS) was 1290 nM and the TGI (SNB-75 CNS) was 2660 nM. It also gave a GI50 (MDA-MB-468 breast) of 1470 nM, a TGI (MDA-MB-468 breast) of 2920 nM and a GI50 (MALME-3M melanoma) of 1670 nM. The TGI (MALME-3M melanoma) was 3220 nM, the GI50 (MDA-MB-435) was 1120 nM and the TGI (MDA-MB-435) was 2350 nM. It also gave a GI50 (UO-31 renal) of 1410 nM, a TGI (UO-31 renal) of 2710 nM and a GI50 (SF-295 CNS) of 1620 nM. For the same molecule, the TGI (SF-295 CNS) was 3070 nM, the GI50 (MDA-MB-231 breast) was 1690 nM and the TGI (MDA-MB-231 breast) was 3070 nM. For the same molecule, the GI50 (CAKI-1 renal) was 1610 nM, the TGI (CAKI-1 renal) was 2980 nM and the GI50 (SF-539 CNS) was 1670 nM. The TGI (SF-539 CNS) was 3030 nM, the GI50 (SK-OV-3 ovarian) was 3630 nM and the TGI (SK-OV-3 ovarian) was 12100 nM. It also gave a GI50 (LOX IMVI melanoma) of 221 nM, a TGI (LOX IMVI melanoma) of 626 nM and a GI50 (NCI/ADR-RES ovarian) of 2160 nM. The TGI (NCI/ADR-RES ovarian) was 4810 nM, the GI50 (TK-10 renal) was 1950 nM and the TGI (TK-10 renal) was 4580 nM. For the same molecule, the GI50 (OVCAR-5 ovarian) was 1800 nM, the TGI (OVCAR-5 ovarian) was 3260 nM and the GI50 (OVCAR-8 ovarian) was 1890 nM. For the same molecule, the TGI (OVCAR-8 ovarian) was 4080 nM, the GI50 (A498 renal) was 12700 nM and the TGI (A498 renal) was 25600 nM. The GI50 (SW-620 colon) was 523 nM, the TGI (SW-620 colon) was 1830 nM and the GI50 (786-0 renal) was 1710 nM. For the same molecule, the TGI (786-0 renal) was 3130 nM, the GI50 (HCT-116 colon) was 175 nM and the TGI (HCT-116 colon) was 319 nM. It also gave a GI50 (NCI-H522 lung) of 1550 nM, a TGI (NCI-H522 lung) of 3020 nM and a GI50 (SK-MEL-5 melanoma) of 1550 nM. For the same molecule, the TGI (SK-MEL-5 melanoma) was 2930 nM, the GI50 (ACHN renal) was 1720 nM and the TGI (ACHN renal) was 3090 nM. For the same molecule, the GI50 (NCI-H23 lung) was 1510 nM, the TGI (NCI-H23 lung) was 2890 nM and the GI50 (A549 NSCLC) was 1780 nM. It also gave a TGI (A549 NSCLC) of 3480 nM, a GI50 (EKVX NSCLC) of 1820 nM and a TGI (EKVX NSCLC) of 3520 nM.
